Source: patent US20260124214A1, “HETEROCYCLIC COMPOUNDS FOR USE IN THE TREATMENT OF CANCER” (ARTIOS PHARMA LIMITED, priority 2021, published 2026)
Structures can show the parent of a compound that is named as a salt.

Molecular target: T1, Human Polθ polymerase domain (aa1820-2590) (Homo sapiens, UniProt O75417)
T1 construct: Human Polθ polymerase domain (aa1820-2590) was expressed in E. Coli; made in house; host or cells: E. coli
T1 sequence (O75417 1820-2590): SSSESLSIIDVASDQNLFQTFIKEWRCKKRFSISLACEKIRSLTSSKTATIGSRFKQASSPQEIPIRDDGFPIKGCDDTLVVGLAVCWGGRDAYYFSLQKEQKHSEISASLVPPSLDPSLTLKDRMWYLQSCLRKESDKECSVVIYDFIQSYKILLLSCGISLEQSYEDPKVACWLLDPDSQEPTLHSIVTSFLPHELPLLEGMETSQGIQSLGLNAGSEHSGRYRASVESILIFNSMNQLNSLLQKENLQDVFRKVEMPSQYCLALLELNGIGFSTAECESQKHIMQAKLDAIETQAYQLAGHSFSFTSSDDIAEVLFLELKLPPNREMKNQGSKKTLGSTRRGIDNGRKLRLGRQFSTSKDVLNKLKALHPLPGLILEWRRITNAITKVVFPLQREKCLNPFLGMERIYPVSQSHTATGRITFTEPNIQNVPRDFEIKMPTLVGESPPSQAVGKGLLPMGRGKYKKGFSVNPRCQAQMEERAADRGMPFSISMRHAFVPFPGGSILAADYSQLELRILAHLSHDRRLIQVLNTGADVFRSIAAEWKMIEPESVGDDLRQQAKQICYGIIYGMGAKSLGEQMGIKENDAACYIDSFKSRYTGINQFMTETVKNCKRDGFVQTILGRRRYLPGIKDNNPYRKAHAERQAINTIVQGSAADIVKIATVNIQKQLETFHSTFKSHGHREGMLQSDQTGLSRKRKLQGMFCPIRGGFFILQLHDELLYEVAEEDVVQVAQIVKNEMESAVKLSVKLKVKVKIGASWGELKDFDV
Experiment: Polθ Polymerase Domain WT KI Assay (PicoGreen)
Assay type: biochemical
Settings: 100 nM DNA substrate, 0.156 nM Polθ, initial rates vs inhibitor concentration
How it was run: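 E. coli-expressed human Polθ polymerase domain (aa1820-2590) on annealed DNA II Short/Long primer-template (1.2:1), in 25 mM Tris pH 7.5, NaCl, 5% glycerol, 0.01% Triton X-100, 0.1 mg/ml BSA, 1 mM DTT, 1% DMSO. EDTA-quenched timepoints to 180 min, PicoGreen fluorescence. Initial rates vs inhibitor concentration fitted four-parameter for KI.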

`CC(=O)N1CCN(CCN2C[C@H]3CC(=O)N(c4cc(C(F)(F)F)cc(C)n4)[C@@H]3C(=O)N(C)c3cccc(C)c32)CC1` [Example 55, (3aR,11aS)-5-(2-(4-Acetylpiperazin-1-yl)ethyl)-6,10-dimethyl-1-(6-methyl-4-(trifluoromethyl)pyridin-2-yl)-1,3a,4,5,10,11a-hexahydro-2H-benzo[b]pyrrolo[2,3-f][1,4]diazocine-2,11(3H)-dione hydrochloride] was tested. Which Ki did it give?
The Ki was 891 pM.

For `Cc1cc(C(F)(F)F)cc(N2C(=O)C[C@@H]3CN(CCN4CC[C@@H](O)C4)c4c(C)cccc4N(C)C(=O)[C@H]32)n1` [Example 56, (3aR,11aS)-5-(2-((R)-3-Hydroxypyrrolidin-1-yl)ethyl)-6,10-dimethyl-1-(6-methyl-4-(trifluoromethyl)pyridin-2-yl)-1,3a,4,5,10,11a-hexahydro-2H-benzo[b]pyrrolo[2,3-f][1,4]diazocine-2,11(3H)-dione], which Ki is on record?
Its Ki is 3120 pM.

For `Cc1cc(C(F)(F)F)cc(N2C(=O)C[C@@H]3CN(CCN4CCN[C@@H](C)C4)c4c(C)cccc4N(C)C(=O)[C@H]32)n1` [Example 57, (3aR,11aS)-6,10-Dimethyl-1-(6-methyl-4-(trifluoromethyl)pyridin-2-yl)-5-(2-((S)-3-methylpiperazin-1-yl)ethyl)-1,3a,4,5,10,11a-hexahydro-2H-benzo[b]pyrrolo[2,3-f][1,4]diazocine-2,11(3H)-dione dihydrochloride], which Ki is on record?
Its Ki is 564 pM.

`Cc1cc(C(F)(F)F)cc(N2C(=O)C[C@@H]3CN(CCN4C[C@H]5C[C@@H]4CN5)c4c(C)cccc4N(C)C(=O)[C@H]32)n1` [Example 58, (3aR,11aS)-5-(2-((1R,4R)-2,5-Diazabicyclo[2.2.1]heptan-2-yl)ethyl)-6,10-dimethyl-1-(6-methyl-4-(trifluoromethyl)pyridin-2-yl)-1,3a,4,5,10,11a-hexahydro-2H-benzo[b]pyrrolo[2,3-f][1,4]diazocine-2,11(3H)-dione dihydrochloride] was tested. Which Ki did it give?
The Ki was 777 pM.

With `Cc1cc(C(F)(F)F)cc(N2C(=O)C[C@@H]3CN(CCN4C[C@@H]5C[C@H]4CN5)c4c(C)cccc4N(C)C(=O)[C@H]32)n1` [Example 59, (3aR,11aS)-5-(2-((1S,4S)-2,5-Diazabicyclo[2.2.1]heptan-2-yl)ethyl)-6,10-dimethyl-1-(6-methyl-4-(trifluoromethyl)pyridin-2-yl)-1,3a,4,5,10,11a-hexahydro-2H-benzo[b]pyrrolo[2,3-f][1,4]diazocine-2,11(3H)-dione dihydrochloride] as the compound, how does the Ki read?
The Ki was 1130 pM.

For `Cc1cc(C(F)(F)F)cc(N2C(=O)C[C@@H]3CN(CCN4CC5CCC(C4)N5C)c4c(C)cccc4N(C)C(=O)[C@H]32)n1` [Example 60, (3aR,11aS)-6,10-Dimethyl-5-(2-(8-methyl-3,8-diazabicyclo[3.2.1]octan-3-yl)ethyl)-1-(6-methyl-4-(trifluoromethyl)pyridin-2-yl)-1,3a,4,5,10,11a-hexahydro-2H-benzo[b]pyrrolo[2,3-f][1,4]diazocine-2,11(3H)-dione dihydrochloride], which Ki is on record?
The Ki was 625 pM.

With `Cc1cc(C(F)(F)F)cc(N2C(=O)C[C@@H]3CN(CCN4C[C@H]5C[C@@H]4CN5C)c4c(C)cccc4N(C)C(=O)[C@H]32)n1` [Example 61, (3aR,11aS)-6,10-Dimethyl-5-(2-((1R,4R)-5-methyl-2,5-diazabicyclo[2.2.1]heptan-2-yl)ethyl)-1-(6-methyl-4-(trifluoromethyl)pyridin-2-yl)-1,3a,4,5,10,11a-hexahydro-2H-benzo[b]pyrrolo[2,3-f][1,4]diazocine-2,11(3H)-dione dihydrochloride] as the compound, how does the Ki read?
Its Ki is 759 pM.

For `Cc1cc(C(F)(F)F)cc(N2C(=O)C[C@@H]3CN(CCN4C[C@@H]5C[C@H]4CN5C)c4c(C)cccc4N(C)C(=O)[C@H]32)n1` [Example 62, (3aR,11aS)-6,10-Dimethyl-5-(2-((1S,4S)-5-methyl-2,5-diazabicyclo[2.2.1]heptan-2-yl)ethyl)-1-(6-methyl-4-(trifluoromethyl)pyridin-2-yl)-1,3a,4,5,10,11a-hexahydro-2H-benzo[b]pyrrolo[2,3-f][1,4]diazocine-2,11(3H)-dione dihydrochloride], which Ki is on record?
The Ki was 1010 pM.

For `Cc1cc(C(F)(F)F)cc(N2C(=O)C[C@@H]3CN(CCN4CCN(C)[C@@H](CO)C4)c4c(C)cccc4N(C)C(=O)[C@H]32)n1` [Example 63, (3aR,11aS)-5-(2-((R)-3-(Hydroxymethyl)-4-methylpiperazin-1-yl)ethyl)-6,10-dimethyl-1-(6-methyl-4-(trifluoromethyl)pyridin-2-yl)-1,3a,4,5,10,11a-hexahydro-2H-benzo[b]pyrrolo[2,3-f][1,4]diazocine-2,11(3H)-dione], which Ki is on record?
Its Ki is 1070 pM.

For `Cc1cc(C(F)(F)F)cc(N2C(=O)C[C@@H]3CN(CCN4CCN(C)C[C@H]4CO)c4c(C)cccc4N(C)C(=O)[C@H]32)n1` [Example 64, (3aR,11aS)-5-(2-((S)-2-(Hydroxymethyl)-4-methylpiperazin-1-yl)ethyl)-6,10-dimethyl-1-(6-methyl-4-(trifluoromethyl)pyridin-2-yl)-1,3a,4,5,10,11a-hexahydro-2H-benzo[b]pyrrolo[2,3-f][1,4]diazocine-2,11(3H)-dione dihydrochloride], which Ki is on record?
Its Ki is 816 pM.

With `Cc1cc(C(F)(F)F)cc(N2C(=O)C[C@@H]3CN(CCN4CCN(C)C[C@@H]4CO)c4c(C)cccc4N(C)C(=O)[C@H]32)n1` [Example 65, (3aR,11aS)-5-(2-((R)-2-(Hydroxymethyl)-4-methylpiperazin-1-yl)ethyl)-6,10-dimethyl-1-(6-methyl-4-(trifluoromethyl)pyridin-2-yl)-1,3a,4,5,10,11a-hexahydro-2H-benzo[b]pyrrolo[2,3-f][1,4]diazocine-2,11(3H)-dione dihydrochloride] as the compound, how does the Ki read?
Its Ki is 1380 pM.

How did the Ki turn out when `Cc1cc(C(F)(F)F)cc(N2C(=O)C[C@@H]3CN(CCN4CC[C@H](N(C)C)[C@H](F)C4)c4c(C)cccc4N(C)C(=O)[C@H]32)n1` [Example 66, (3aR,11aS)-5-(2-((3R,4S)-4-(Dimethylamino)-3-fluoropiperidin-1-yl)ethyl)-6,10-dimethyl-1-(6-methyl-4-(trifluoromethyl)pyridin-2-yl)-1,3a,4,5,10,11a-hexahydro-2H-benzo[b]pyrrolo[2,3-f][1,4]diazocine-2,11(3H)-dione dihydrochloride] was run?
The Ki was 936 pM.

`Cc1cc(C(F)(F)F)cc(N2C(=O)C[C@@H]3CN(CCN4CCN(S(C)(=O)=O)CC4)c4c(C)cccc4N(C)C(=O)[C@H]32)n1` [Example 67, (3aR,11aS)-6,10-Dimethyl-1-(6-methyl-4-(trifluoromethyl)pyridin-2-yl)-5-(2-(4-(methylsulfonyl)piperazin-1-yl)ethyl)-1,3a,4,5,10,11a-hexahydro-2H-benzo[b]pyrrolo[2,3-f][1,4]diazocine-2,11(3H)-dione] was tested. Which Ki did it give?
The Ki was 598 pM.

Which Ki does the source give for `Cc1cc(C(F)(F)F)cc(N2C(=O)C[C@@H]3CN(CCN4CCS(=O)(=O)CC4)c4c(C)cccc4N(C)C(=O)[C@H]32)n1` [Example 68, (3aR,11aS)-5-(2-(1,1-Dioxidothiomorpholino)ethyl)-6,10-dimethyl-1-(6-methyl-4-(trifluoromethyl)pyridin-2-yl)-1,3a,4,5,10,11a-hexahydro-2H-benzo[b]pyrrolo[2,3-f][1,4]diazocine-2,11(3H)-dione] here?
Its Ki is 1070 pM.

Which Ki does the source give for `Cc1cc(C(F)(F)F)cc(N2C(=O)C[C@@H]3CN(CCN4CCC(C#N)CC4)c4c(C)cccc4N(C)C(=O)[C@H]32)n1` [Example 69, 1-(2-((3aR,11aS)-6,10-Dimethyl-1-(6-methyl-4-(trifluoromethyl)pyridin-2-yl)-2,11-dioxo-1,2,3,3a,4,10,11,11a-octahydro-5H-benzo[b]pyrrolo[2,3-f][1,4]diazocin-5-yl)ethyl)piperidine-4-carbonitrile] here?
The Ki was 1120 pM.

`Cc1cc(C(F)(F)F)cc(N2C(=O)C[C@@H]3CN(CCN4CC[C@H](C#N)C4)c4c(C)cccc4N(C)C(=O)[C@H]32)n1` [Example 70, (S)-1-(2-((3aR,11aS)-6,10-Dimethyl-1-(6-methyl-4-(trifluoromethyl)pyridin-2-yl)-2,11-dioxo-1,2,3,3a,4,10,11,11a-octahydro-5H-benzo[b]pyrrolo[2,3-f][1,4]diazocin-5-yl)ethyl)pyrrolidine-3-carbonitrile] was tested. Which Ki did it give?
Its Ki is 692 pM.

With `Cc1cc(C(F)(F)F)cc(N2C(=O)C[C@@H]3CN(CCN4CC[C@@H](C#N)C4)c4c(C)cccc4N(C)C(=O)[C@H]32)n1` [Example 71, (R)-1-(2-((3aR,11aS)-6,10-Dimethyl-1-(6-methyl-4-(trifluoromethyl)pyridin-2-yl)-2,11-dioxo-1,2,3,3a,4,10,11,11a-octahydro-5H-benzo[b]pyrrolo[2,3-f][1,4]diazocin-5-yl)ethyl)pyrrolidine-3-carbonitrile] as the compound, how does the Ki read?
The Ki was 1150 pM.
